These results are taken from patent US11773127B2, “Compounds and methods for treating bacterial infections” (Washington University, priority 2017, dated 2023).

Where two headings read alike, the source gives them in different places.

The target in this assay is T1, FmlHLD (Escherichia coli, UniProt P77588).
T1 construct: 6xHis (C); made in house; host or cells: E. coli C600, periplasm, pTRC99a
In words: biochemical. The format is binding, E. coli. Particulars: for PI100 (percent inhibition): galactoside at 100 μM; for inhibition at 10 µM: read-out: % Inhibition at [μM] [10], compound at 10 μM; for inhibitory potency against FmlH, in words: ELISA-based competition assay; for % Inhibition at [μM] [100]: compound at 100 μM. The gist of the method: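 Sialidase-treated bovine submaxillary mucin (ds-BSM) coated wells, BSA-blocked, then biotinylated FmlH^LD (20 μg/mL) with or without compound for 1 h at room temperature. Bound lectin detected by streptavidin-HRP/TMB, A450.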
Background: In an ELISA, binding on a coated surface is turned into a signal by an enzyme label.

The mark [1] stands for this setting: mean with standard error of the mean, 100 µM.
[2] abbreviates: read-out: PI100 (percent inhibition), galactoside at 100 μM, mean with standard error of the mean.
[3] abbreviates: read-out: % Inhibition at [μM] [1], compound at 1 μM, inhibition of FmlHLD binding to ds-BSM.
Setting [4] is: read-out: PI(1) (average percent inhibition), compound at 1 μM, Table 4.
The mark [5] stands for this setting: inhibition of FmlHLD binding to ds-BSM.
The mark [6] stands for this setting: read-out: % Inhibition at [μM] [100], compound at 100 μM, inhibition of FmlHLD binding to ds-BSM.
[7] abbreviates: IC50, inhibition of FmlHLD binding to ds-BSM.
[8] abbreviates: IC50 (μM), Table 5, Gal and GalNAc inhibition of FmlH.
[9] abbreviates: read-out: % Inhibition at [μM] [0.1], compound at 0.1 μM (100 nM), inhibition of FmlHLD binding to ds-BSM.
The mark [10] stands for this setting: read-out: PI (0.1) (average percent inhibition), compound at 100 nM, Table 4.
The mark [11] stands for this setting: mean with standard error of the mean.

T1 sequence (P77588 25-182): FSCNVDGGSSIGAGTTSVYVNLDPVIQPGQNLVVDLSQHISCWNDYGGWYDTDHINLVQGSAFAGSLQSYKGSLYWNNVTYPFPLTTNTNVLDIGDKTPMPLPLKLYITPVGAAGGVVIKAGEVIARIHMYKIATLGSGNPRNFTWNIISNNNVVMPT

For the compound `OC[C@H]1O[C@@H](Oc2c[nH]c3cc(Cl)ccc23)[C@H](O)[C@@H](O)[C@H]1O` [Compound 17β], under setting [1], the “PI100 (percent inhibition)” value is recorded as 41.2 ± 3.4%. Under setting [2], the inhibition (as a rule, the relative decrease from the control value, in per cent) at 100 µM was found to be 41%.

In the case of `CC(=O)N[C@H]1[C@H](Oc2ccc3cnccc3c2)O[C@H](CO)[C@H](O)[C@@H]1O` [AM2007, N-((2S,3R,4R,5R,6R)-4,5-dihydroxy-6-(hydroxymethyl)-2-(isoquinolin-6-yloxy)tetrahydro-2H-pyran-3-yl)acetamide], the inhibition at 1 µM under setting [3] amounted to 12.6% and the inhibition at 1 µM under setting [4] came out at 12.6%.

For `CC(C)(C)NC(=O)CN(C(=O)c1cccc2cccnc12)[C@@H]1O[C@H](CO)[C@H](O)[C@H](O)[C@H]1O` [AM1181, N-(2-(tert-butylamino)-2-oxoethyl)-N-((2R,3R,4S,5R,6R)-3,4,5-trihydroxy-6-(hydroxymethyl)tetrahydro-2H-pyran-2-yl)quinoline-8-carboxamide], the inhibition at 1 µM under setting [3] was determined as 10.8% and the inhibition at 1 µM under setting [4] came out at 10.8%.

Turning to `COc1cc(OC)cc(O[C@@H]2O[C@H](CO)[C@H](O)[C@H](O)[C@H]2O)c1` [Compound 151d], under setting [5], the inhibition at 10 µM came out at 11.7%. The inhibition at 100 µM under setting [6] came to 76.4%.

For `CC(=O)N[C@H]1[C@H](Oc2cccc(C(=O)O)c2-c2cccc(NS(C)(=O)=O)c2)O[C@H](CO)[C@H](O)[C@@H]1O` [AM2148], under setting [7], the IC50 – broadly, the concentration that inhibits the measured activity by half – is 0.13 µM.

For the compound `CC(C)S[C@@H]1O[C@H](CO)[C@H](O)[C@H](O)[C@H]1O` [IPTG, isopropyl β-thiogalactoside, reference compound], the inhibition at 100 µM under setting [6] came out at 23.7%. Further, the “inhibition of FmlHLD binding to ds-BSM, in words” value (soluble compound at 100 μM (0.1 mM)) is recorded as “minor inhibitory activity”.

As to `COC(=O)c1cccc(-c2ccccc2O[C@H]2O[C@H](CO)[C@H](O)[C@H](O)[C@H]2O)c1` [Compound 116e], under setting [6], the inhibition at 100 µM was determined as 13.1%.

`CC(=O)N[C@H]1[C@H](Oc2ccccc2[N+](=O)[O-])O[C@H](CO)[C@H](O)[C@@H]1O` [ONPG-NAc]: the inhibition at 1 µM under setting [3] came out at 22.4%. Also, the inhibition at 10 µM under setting [5] is 87.2%. Besides, the inhibition at 100 µM under setting [6] turned out to be 99.4%.

Regarding `OC[C@H]1O[C@@H](Oc2c[nH]c3ccccc23)[C@H](O)[C@@H](O)[C@H]1O` [3-indoxyl Gal, reference compound], the inhibition at 100 µM under setting [6] amounted to 21.7%.

Regarding `CC(=O)N[C@H]1[C@H](Oc2ccccc2-c2cc(NS(=O)(=O)C(F)(F)F)ccc2F)O[C@H](CO)[C@H](O)[C@@H]1O` [AM2116], under setting [7], the IC50 worked out at 3.07 µM.

As to `CC(=O)N[C@@H]1[C@@H](O)[C@@H](O)[C@@H](CO)O[C@H]1N(CC(=O)NC(C)(C)C)C(=O)c1cccc2cccnc12` [AM1165, N-((2R,3R,4R,5R,6R)-3-acetamido-4,5-dihydroxy-6-(hydroxymethyl)tetrahydro-2H-pyran-2 yl)-N-(2-“(tert-butylamino)-2-oxoethyl)quinoline-8-carboxamide], the inhibition at 1 µM runs as follows: under setting [3], 5.57%; under setting [4], 5.57%.

As for `CC(=O)N[C@H]1[C@H](Oc2cccc(C)c2-c2cccc(NS(=O)(=O)N(C)C)c2)O[C@H](CO)[C@H](O)[C@@H]1O` [AM2152], under setting [7], the IC50 was determined as 0.13 µM.

Consider `COc1ccc(OS(C)(=O)=O)cc1-c1ccccc1O[C@@H]1O[C@H](CO)[C@H](O)[C@H](O)[C@H]1NC(C)=O` [AM2077, 2′-(((2S,3R,4R,5R,6R)-3-acetamido-4,5-dihydroxy-6-(hydroxymethyl)tetrahydro-2H-pyran-2-yl)oxy)-6-methoxy-[1,1′-biphenyl]-3-yl methanesulfonate], for which the “inhibitory potency against FmlH, in words” value is reported as “equal or slightly reduced potency”. The compound further registered an IC50 under setting [8] of 3.72 µM. Also, under setting [9], the inhibition at 0.1 µM worked out at 2.5%. Besides, under setting [3], the inhibition at 1 µM is 0%. In addition, the inhibition at 0.1 µM under setting [10] is 2.5%. Besides, the inhibition at 1 µM under setting [4] stood at 0%.

For the compound `CC(=O)N[C@H]1[C@H](Oc2ccccc2-c2cccc(NS(C)(=O)=O)c2)O[C@H](CO)[C@H](O)[C@@H]1O` [AM2038, N-((2S,3R,4R,5R,6R)-4,5-dihydroxy-6-(hydroxymethyl)-2-((3′-(methylsulfonamido)-[1,1′-biphenyl]-2-yl)oxy)tetrahydro-2H-pyran-3-yl)acetamide], the “potency relative to matched pair Gal/GalNAc derivative” value (2038 vs 2043, 2050 vs 3029) is reported as “about 5 fold”. Moreover, the half-inhibitory concentration (IC50) worked out at 0.23 µM under setting [8] and 0.271 µM under setting [7]. The “greater potency than 29β-NAc” value (IC50 ratio) is 3 fold. In addition, the inhibition at 0.1 µM runs as follows: under setting [9], 16.5%; under setting [10], 16.5%. In addition, the inhibition at 1 µM by setting is: under setting [3], 81.4%; under setting [4], 81.4%.

In the case of `COC(=O)c1cccc(-c2ccccc2O[C@H]2O[C@H](CO)[C@H](O)[C@H](O)[C@H]2O)c1` [Compound 30α, 2′-(α/β-D-galactopyranosyloxy)-[1,1′-Biphenyl]-3-carboxylic acid methyl ester], under setting [2], the inhibition at 100 µM was 13.1 ± 7.6%.

Take `OC[C@H]1O[C@H](Oc2ccc(-c3ccccc3)cc2)[C@H](O)[C@@H](O)[C@H]1O` [Compound 114bf1]: the inhibition at 10 µM under setting [5] turned out to be 22.6%. Moreover, the inhibition at 100 µM under setting [6] was 86.5%.

For the compound `O=C(O)C1OC(Oc2ccc([N+](=O)[O-])cc2)C(O)C(O)C1O` (centres unmarked) [PNP Galacturonide, reference compound], the % Inhibition (as a rule, the relative decrease from the control value, in per cent) at [μM] [100] under setting [5] is −2.40%.

Take `CC(=O)N[C@H]1[C@H](Oc2cccc3c(C)ccnc23)O[C@H](CO)[C@H](O)[C@@H]1O` [AM1192, N-((2S,3R,4R,5R,6R)-4,5-dihydroxy-6-(hydroxymethyl)-2-((4-methylquinolin-8-yl)oxy)tetrahydro-2H-pyran-3-yl)acetamide]: the inhibition at 1 µM under setting [3] was 16.8% and the inhibition at 1 µM under setting [4] worked out at 16.8%.

`CCOC(=O)c1ccc(OC)c(-c2ccccc2O[C@@H]2O[C@H](CO)[C@H](O)[C@H](O)[C@H]2NC(C)=O)c1` [AM2053, ethyl 2′-(((2S,3R,4R,5R,6R)-3-acetamido-4,5-dihydroxy-6-(hydroxymethyl)tetrahydro-2H-pyran-2-yl)oxy)-6-methoxy-[1,1′-biphenyl]-3-carboxylate]: the inhibition at 0.1 µM was determined as 0% under setting [9] and 0% under setting [10]. Also, the inhibition at 1 µM runs as follows: under setting [3], 13.7%; under setting [4], 13.7%.

Turning to `OC[C@H]1O[C@@H](Oc2cc3c(O)cc(O)cc3[o+]c2-c2ccc(O)cc2)[C@H](O)[C@@H](O)[C@H]1O` [PelG, reference compound], under setting [6], the inhibition at 100 µM was 0.74%.

With `CC(=O)N[C@H]1[C@@H](Oc2ccc([N+](=O)[O-])cc2)O[C@H](CO)[C@H](O)[C@@H]1O[C@@H]1O[C@H](CO)[C@H](O)[C@H](O)[C@H]1O` [Compound 33, p-nitrophenyl Gal-β1-3-GalNAc, reference compound], the “PI100 (percent inhibition)” value under setting [11] is reported as 15.3 ± 3.1%.

With `N#Cc1ccc(O[C@@H]2O[C@H](CO)[C@H](O)[C@H](O)[C@H]2O)cc1` [Compound 152b], the inhibition at 1 µM under setting [3] stood at 9.47%. Further, under setting [5], the inhibition at 10 µM worked out at 19.2%. Under setting [6], the inhibition at 100 µM stood at 85.7%.

`Cc1ccccc1O[C@H]1O[C@H](CO)[C@H](O)[C@H](O)[C@H]1O` [Compound 2α, 2-Methylphenyl α/β-D-Galactopyranoside]: the inhibition at 100 µM under setting [2] was found to be 30 ± 5.4%.

As to `OC[C@H]1O[C@@H](Oc2ccccc2Cl)[C@H](O)[C@@H](O)[C@H]1O` [Compound 154c], the inhibition at 1 µM under setting [3] was 7.95%. The inhibition at 10 µM under setting [5] amounted to 20.7%. In addition, the inhibition at 100 µM under setting [6] was 90.5%.

Turning to `Cc1cc(=O)oc2cc(O[C@@H]3O[C@H](CO)[C@H](O)[C@H](O)[C@H]3O)ccc12` [MUG, reference compound], the inhibition at 1 µM under setting [3] amounted to 8.73%. The inhibition at 10 µM under setting [5] amounted to 19.7%. Also, the inhibition at 100 µM under setting [6] worked out at 85.2%.

`CC(=O)N[C@H]1[C@H](Oc2ccccc2-c2cccc(C#N)c2)O[C@H](CO)[C@H](O)[C@@H]1O` [AM2035, N-((2S,3R,4R,5R,6R)-2-((3′-cyano-[1,1′-biphenyl]-2-yl)oxy)-4,5-dihydroxy-6-(hydroxymethyl)tetrahydro-2H-pyran-3-yl)acetamide]: the “inhibitory potency against FmlH, in words” value was “equal or slightly reduced potency”. For the same compound, the IC50 under setting [8] worked out at 0.97 µM. Under setting [3], the inhibition at 1 µM is 20.9%. Also, the inhibition at 1 µM under setting [4] came to 20.9%.

`OC[C@H]1O[C@@H](Oc2cccc3ccccc23)[C@H](O)[C@@H](O)[C@H]1O` [Compound 18β, 1-naphthalenyl α/β-D-galactopyranoside]: the “PI100 (percent inhibition)” value under setting [1] stood at 45.9 ± 3.7%. Besides, under setting [2], the inhibition at 100 µM was found to be 46%.

For `Cc1ccccc1O[C@H]1O[C@H](CO)[C@H](O)[C@H](O)[C@H]1O` [Compound 135a], the inhibition at 100 µM under setting [6] turned out to be 30%.

`O=[N+]([O-])c1ccc(O[C@@H]2O[C@H](CO[C@@H]3O[C@H](CO)[C@H](O)[C@H](O)[C@H]3O)[C@H](O)[C@H](O)[C@H]2O)cc1` [Compound 35, p-nitrophenyl Gal-β1-6-Gal, reference compound]: under setting [11], the “PI100 (percent inhibition)” value was 19.4 ± 1.6%.

In the case of `CC(=O)N[C@H]1[C@@H](Oc2ccc([N+](=O)[O-])cc2)O[C@H](CO)[C@H](O)[C@@H]1O[C@@H]1O[C@H](CO)[C@H](O)[C@H](O)[C@H]1O` [Gal-b1-3-PNPGalNAc, reference compound], the “% Inhibition at [μM] [100]” value under setting [5] amounted to 15.28%.
